According to US8501936B2 (priority 2009, dated 2013):

Experiments:
human JAK2 = human JAK2 (Homo sapiens (Human), UniProt O60674); conditions: read-out: JAK2 IC50
human FAK = human FAK (Homo sapiens (Human), UniProt Q05397); conditions: read-out: FAK IC50
Chain of human FAK (Q05397 whole entry): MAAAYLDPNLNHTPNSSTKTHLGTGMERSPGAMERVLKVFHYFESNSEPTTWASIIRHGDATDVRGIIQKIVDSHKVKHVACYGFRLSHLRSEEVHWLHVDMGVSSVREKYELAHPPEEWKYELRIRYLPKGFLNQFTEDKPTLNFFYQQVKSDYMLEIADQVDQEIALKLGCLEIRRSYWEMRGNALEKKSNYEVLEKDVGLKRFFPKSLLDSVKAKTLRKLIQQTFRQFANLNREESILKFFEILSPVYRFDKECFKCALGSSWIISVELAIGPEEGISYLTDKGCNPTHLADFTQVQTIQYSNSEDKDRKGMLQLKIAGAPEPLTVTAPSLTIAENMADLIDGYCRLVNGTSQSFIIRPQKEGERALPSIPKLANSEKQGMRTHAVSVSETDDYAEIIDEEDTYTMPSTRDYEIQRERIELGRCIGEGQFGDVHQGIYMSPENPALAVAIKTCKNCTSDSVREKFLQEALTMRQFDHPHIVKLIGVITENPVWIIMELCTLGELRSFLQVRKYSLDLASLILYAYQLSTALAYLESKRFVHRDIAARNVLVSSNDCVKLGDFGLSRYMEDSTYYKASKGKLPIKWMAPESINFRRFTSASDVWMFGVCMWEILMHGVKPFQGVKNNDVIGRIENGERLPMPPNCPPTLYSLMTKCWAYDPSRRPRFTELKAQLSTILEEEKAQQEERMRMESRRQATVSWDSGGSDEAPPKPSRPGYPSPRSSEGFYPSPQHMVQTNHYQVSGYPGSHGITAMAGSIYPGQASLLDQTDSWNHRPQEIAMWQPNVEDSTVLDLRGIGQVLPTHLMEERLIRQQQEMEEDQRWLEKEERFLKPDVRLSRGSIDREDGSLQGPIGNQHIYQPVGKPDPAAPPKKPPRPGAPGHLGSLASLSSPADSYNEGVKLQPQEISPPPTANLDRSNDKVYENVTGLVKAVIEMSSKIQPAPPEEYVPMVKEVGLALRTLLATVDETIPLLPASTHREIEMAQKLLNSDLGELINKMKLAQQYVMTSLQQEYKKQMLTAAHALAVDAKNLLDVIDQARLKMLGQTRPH

Chain of human JAK2 (O60674 815-1132): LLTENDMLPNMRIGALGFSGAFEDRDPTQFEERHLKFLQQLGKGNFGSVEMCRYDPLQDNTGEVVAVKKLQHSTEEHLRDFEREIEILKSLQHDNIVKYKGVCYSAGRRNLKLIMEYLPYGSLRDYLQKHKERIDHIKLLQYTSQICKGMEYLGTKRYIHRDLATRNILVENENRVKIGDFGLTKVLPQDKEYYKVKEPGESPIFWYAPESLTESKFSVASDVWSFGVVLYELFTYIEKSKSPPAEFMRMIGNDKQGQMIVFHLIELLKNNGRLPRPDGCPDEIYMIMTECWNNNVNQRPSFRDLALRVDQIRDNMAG

| SMILES | IC50 (human JAK2) | IC50 (human FAK) |
| --- | --- | --- |
| CCn1cc(Nc2nc3c(Oc4ccc(S(C)(=O)=O)cc4)cccn3n2)cn1 [Example 211, (1-Ethyl-1H-pyrazol-4-yl)-[8-(4-methanesulfonyl-phenoxy)-[1,2,4]triazolo[1,5-a]pyridin-2-yl]-amine] | 1160 nM | 10000 nM |
| CC(C)(C)OC(=O)N1CCC(n2cc(Nc3nc4c(-c5ccc(S(C)(=O)=O)cc5)cccn4n3)cn2)CC1 [Example 212, 4-{4-[8-(4-Methanesulfonyl-phenyl)-[1,2,4]triazolo[1,5-a]pyridin-2-ylamino]-pyrazol-1-yl}-piperidin-1-carboxylic acid tert-butyl ester] | 0.5 nM | 3000 nM |
| CS(=O)(=O)c1ccc(-c2cccn3nc(Nc4cnn(C5CCNCC5)c4)nc23)cc1 [Example 213, [8-(4-Methanesulfonyl-phenyl)-[1,2,4]triazolo[1,5-a]pyridin-2-yl]-(1-piperidin-4-yl-1H-pyrazol-4-yl)-amine] | 0.71 nM | 3000 nM |
| FC(F)(F)c1ccc(-c2cccn3nc(Nc4cnn(CCN5CCCC5)c4)nc23)cc1 [Example 216, [1-(2-Pyrrolidin-1-yl-ethyl)-1H-pyrazol-4-yl]-[8-(4-trifluoromethyl-phenyl)-[1,2,4]triazolo[1,5-a]pyridin-2-yl]-amine] | 9.1 nM | 10000 nM |
| CS(=O)(=O)c1ccc(Oc2cccn3nc(Nc4cnn(CCN5CCCC5)c4)nc23)cc1 [Example 217, [8-(4-Methanesulfonyl-phenoxy)-[1,2,4]triazolo[1,5-a]pyridin-2-yl]-(1-(2-pyrrolidin-1-yl-ethyl)-1H-pyrazol-4-yl]-amine] | 3000 nM | 1220 nM |
| CS(=O)(=O)c1ccc(-c2cccn3nc(Nc4cnn(CCN5CCCC5)c4)nc23)cc1 [Example 219, [8-(4-Methanesulfonyl-phenyl)-[1,2,4]triazolo[1,5-a]pyridin-2-yl]-(1-(2-pyrrolidin-1-yl-ethyl)-1H-pyrazol-4-yl]-amine] | 13.9 nM | 10000 nM |
| COCc1ccccc1-c1cccc2nc(Nc3ccc4c(c3)CCN(C(=O)OC(C)(C)C)CC4)nn12 [Example 226, 7-[5-(2-Methoxymethyl-phenyl)-[1,2,4]triazolo[1,5-a]pyridin-2-ylamino]-1,2,4,5-tetrahydro-benzo[d]azepine-3-carboxylic acid tert-butyl ester] | 650 nM | 10000 nM |
| COCc1ccccc1-c1cccc2nc(Nc3ccc4c(c3)CCN(CC(=O)N(C)C)CC4)nn12 [Example 229, 2-{7-[5-(2-Methoxymethyl-phenyl)-[1,2,4]triazolo[1,5-a]pyridin-2-ylamino]-1,2,4,5-tetrahydro-benzo[d]azepin-3-yl}-N,N-dimethyl-acetamide] | 47.4 nM | 3000 nM |
| COCc1ccccc1-c1cccc2nc(Nc3ccc4c(c3)CCN(CCS(C)(=O)=O)CC4)nn12 [Example 230, [3-(2-Methanesulfonyl-ethyl)-2,3,4,5-tetrahydro-1H-benzo[d]azepin-7-yl]-[5-(2-methoxymethyl-phenyl)-[1,2,4]triazolo[1,5-a]pyridin-2-yl]-amine] | 27.6 nM | 2000 nM |
| COc1ccc(C(F)(F)F)cc1-c1cccc2nc(Nc3ccc4c(c3)CCNCC4)nn12 [Example 234, [5-(2-Methoxy-5-trifluoromethyl-phenyl)-[1,2,4]triazolo[1,5-a]pyridine-2-yl]-(2,3,4,5-tetrahydro-1H-benzo[d]azepin-7-yl)-amine] | 23.4 nM | 547 nM |
| COc1ccc(C(F)(F)F)cc1-c1cccc2nc(Nc3ccc4c(c3)CCN(CCSC)CC4)nn12 [Example 235, [5-(2-Methoxy-5-trifluoromethyl-phenyl)-[1,2,4]triazolo[1,5-a]pyridin-2-yl]-(3-(2-methylsulfanyl-ethyl)-2,3,4,5-tetrahydro-1H-3-benzazepin-7-yl]-amine] | 26.7 nM | 135 nM |
| COc1ccc(C(F)(F)F)cc1-c1cccc2nc(Nc3ccc4c(c3)CCN(CC(=O)N(C)C)CC4)nn12 [Example 237] | 53.9 nM | 714 nM |
| CCOc1ccccc1-c1cccn2nc(Nc3ccc4c(c3)CCN(CCS(C)(=O)=O)CC4)nc12 [Example 245] | 70 nM | 10000 nM |
| CCOc1ccccc1-c1cccn2nc(Nc3ccc4c(c3)CCN(CC(=O)N(C)C)CC4)nc12 [Example 246] | 212 nM | 10000 nM |
| CS(=O)(=O)CCN1CCc2ccc(Nc3nc4c(-c5cccc6c5OC(F)(F)O6)cccn4n3)cc2CC1 [Example 247, [8-(2,2-difluoro-1,3-benzodioxol-4-yl)-[1,2,4]triazolo[1,5-a]pyridin-2-yl]-[3-(2-methanesulfonyl-ethyl)-2,3,4,5-tetrahydro-1H-3-benzazepin-7-yl)amine] | 24.8 nM | 2000 nM |
| CN(C)C(=O)CN1CCc2ccc(Nc3nc4c(-c5cccc6c5OC(F)(F)O6)cccn4n3)cc2CC1 [Example 248, 2-(7-[8-(2,2-difluoro-1,3-benzodioxol-4-yl)-[1,2,4]triazolo[1,5-a]pyridin-2-yl-amino]-1,2,4,5-tetrahydro-3-benzazepin-3-yl)-N—N-dimethyl-acetamide] | 30.4 nM | 1700 nM |

| SMILES | IC50 (human JAK2) | IC50 (human FAK) |
| --- | --- | --- |
| COc1ccc(C(F)(F)F)cc1-c1cccn2nc(Nc3ccc(N4CCN(C)CC4)cc3)nc12 [Example 254, [8-(2-Methoxy-5-trifluoromethyl-phenyl)-[1,2,4]triazolo[1,5-a]pyridin-2-yl]-[4-(4-methyl-piperazine-1-yl)-phenyl]-amine] | 31.3 nM | 1080 nM |
| COc1ccc(C(F)(F)F)cc1-c1cccn2nc(Nc3cccc(N4CCN(C)CC4)c3)nc12 [Example 255, [8-(2-Methoxy-5-trifluoromethyl-phenyl)-[1,2,4]triazolo[1,5-a]pyridin-2-yl]-[3-(4-methyl-piperazine-1-yl)-phenyl]-amine] | 158 nM | 1220 nM |
| COc1ccc(C(F)(F)F)cc1-c1cccn2nc(Nc3cccc(C4CCNCC4)c3)nc12 [Example 257, [8-(2-Methoxy-5-trifluoromethyl-phenyl)-[1,2,4]triazolo[1,5-a]pyridin-2-yl]-(3-piperidin-4-yl-phenyl)-amine] | 28.9 nM | 481 nM |
| COc1ccc(C(F)(F)F)cc1-c1cccn2nc(Nc3ccc(OCCN4CCOCC4)cc3)nc12 [Example 258, [8-(2-Methoxy-5-trifluoromethyl-phenyl)-[1,2,4]triazolo[1,5-a]pyridin-2-yl]-[4-(2-morpholin-4-yl-ethoxy)-phenyl]-amine] | 84.5 nM | 6500 nM |
| COc1ccc(C(F)(F)F)cc1-c1cccn2nc(Nc3ccc(OCCN4CCCC4)cc3)nc12 [Example 259, [8-(2-Methoxy-5-trifluoromethyl-phenyl)-[1,2,4]triazolo[1,5-a]pyridin-2-yl]-[4-(2-pyrrolidin-1-yl-ethoxy)-phenyl]-amine] | 73.7 nM | 3390 nM |
| CN1CCN(c2cccc(Nc3nc4c(OCc5cccc(Cl)c5)cccn4n3)c2)CC1 [Example 261, [8-(3-Chloro-benzyloxy)-[1,2,4]triazolo[1,5-a]pyridin-2-yl]-[3-(4-methyl-piperazin-1-yl)-phenyl]-amine] | 99.5 nM | 1590 nM |
| CN1CCN(c2ccc(Nc3nc4c(OCc5ccccc5C#N)cccn4n3)cc2)CC1 [Example 262, 2-{2-[4-(4-Methyl-piperazin-1-yl)-phenylamino]-[1,2,4]triazolo[1,5-a]pyridin-8-yloxymethyl}-benzonitrile] | 15.1 nM | 2560 nM |
| CC(=O)Nc1cccc(Nc2nc3c(-c4ccc(S(C)(=O)=O)cc4)cccn3n2)c1 [Example 267, N-{3-[8-(4-Methanesulfonyl-phenyl)-[1,2,4]triazolo[1,5-a]pyridin-2-ylamino]-phenyl}-acetamide] | 3.43 nM | 10000 nM |
| CS(=O)(=O)CCN1CCc2ccc(Nc3nc4c(-c5cc(C(F)(F)F)ccc5Cl)cccn4n3)cc2CC1 [Example 268, [8-(2-Chloro-5-trifluoromethyl-phenyl)-[1,2,4]triazolo[1,5-a]pyridin-2-yl]-[3-(2-methanesulfonyl-ethyl)-2,3,4,5-tetrahydro-1H-benzo[d]azopin-7-yl]-amine] | 16.8 nM | 999 nM |
| COc1ncccc1-c1cccn2nc(Nc3ccc(C4CCN(C(=O)OC(C)(C)C)CC4)cc3)nc12 [Example 271] | 675 nM | 10000 nM |
| COc1ncccc1-c1cccn2nc(Nc3ccc(C4CCNCC4)cc3)nc12 [Example 272] | 377 nM | 10000 nM |
| COc1ncccc1-c1cccn2nc(Nc3ccc(C4CCN(CC(=O)N(C)C)CC4)cc3)nc12 [Example 273, 2-(4-{4-[8-(2-Methoxy-pyridin-3-yl)-[1,2,4]triazolo[1,5-a]pyridine-2-ylamino]-phenyl}-piperidin-1-yl)-N,N-dimethyl-acetamide] | 251 nM | 999 nM |
| COc1ncccc1-c1cccn2nc(Nc3ccc4ncccc4c3)nc12 [Example 274, [8-(2-Methoxy-pyridin-3-yl)-[1,2,4]triazolo[1,5-a]pyridine-2-yl]-quinolin-6-yl-amine] | 192 nM | 10000 nM |
| CN(C)C(=O)CN1CCC(c2ccc(Nc3nc4c(-c5ccc[nH]c5=O)cccn4n3)cc2)CC1 [Example 275, N,N-Dimethyl-2(4-{4-[8-(2-oxo-1,2-dihydro-pyridin-3-yl)-[1,2,4]triazolo[1,5-a]pyridine-2-ylamino]-phenyl}-piperidin-1-yl)-acetamide] | 270 nM | 2000 nM |
| COc1ncc(C(F)(F)F)cc1-c1cccn2nc(Nc3ccc(C4CCNCC4)cc3)nc12 [Example 278, [8-(2-Methoxy-5-trifluoromethyl-pyridin-3-yl)-[1,2,4]triazolo[1,5-a]pyridine-2-yl]-(4-piperidine-4-yl-phenyl)-amine] | 133 nM | 10000 nM |
| COc1ncc(C(F)(F)F)cc1-c1cccn2nc(Nc3ccc(C4CCN(CC(=O)N(C)C)CC4)cc3)nc12 [Example 279, 2-(4-{4-[8-(2-Methoxy-5-trifluoromethyl-pyridin-3-yl)-[1,2,4]triazolo[1,5-a]pyridin-2-ylamino]-phenyl}-piperidin-1-yl)-N,N-dimethyl-acetamide] | 74.6 nM | 10000 nM |
